One experiment deals with T1, full-length WT STING (Homo sapiens, UniProt Q86WV6, H232R).
T1 construct: AviTag (after gg linker) (C); HRV3C cleavage site (after gs linker) (C); HIS8 (C); made in house; host or cells: Trichoplusia ni (Hi-Five) insect cells infected with baculovirus (virus generated and amplified in Sf21 cells); used as a washed membrane preparation
In words: 3H-cGAMP filtration binding assay (WT STING). The note with it: competition with tritiated cGAMP, WT STING membrane. As for the experimental part:
The ability of compounds to bind STING is quantified by their ability to compete with tritiated cGAMP ligand for human STING receptor membrane using a radioactive filter-binding assay. The binding assay employs STING receptor obtained from Trichoplusia ni cell membranes (T. ni; Expression Systems, cat #94-002F, www.expressionsystems.com) overexpressing full-length WT STING and tritiated cGAMP ligand.
The basic WT STING filtration assay protocol is as follows:
16 nM of [^3H] c-GAMP ligand was prepared by diluting into assay buffer, and 50 uL of this working stock was manually added to each well of the assay plate. After ligand addition, 2 uL of either titrated test compound, DMSO control (Sigma #276855), or cold cGAMP control was added to the appropriate wells using a BIOMEK FX. The serially titrated compound was prepared on a Hamilton STARPlus CORE in a 96-well plate (Greiner, #651201) using a 1:3 ten-point dose response format. Following compound addition, a 2.2 ug/ml working concentration of STING membrane (SEQ. ID. No. 3) was prepared by diluting concentrated membrane into assay buffer (1×PBS; Invitrogen # SH30028.02) and douncing 7× using a manual tissue homogenizer (Wheaton, #357546). 148 uL of this prepared membrane was then manually added to each well of a 96-well deep-well polypropylene plate (Fisher Scientific, #12-566-121). Compound, ligand, and membrane then incubated for 60 min at RT before the contents of each assay plate were filtered through a 96-well GF/B filter plate (PerkinElmer, #6005250) using a TOMTEC MACH III Cell Harvester equipped with 20 mM HEPES buffer (Fisher Scientific, # BP299500). The filter plates were then dried at 55° C. for 30 min using a pressurized VWR oven before 30 uL of ULTIMA GOLD F scintillate was added to each well. Tritium levels for each reaction well were then measured using a PerkinElmer TopCount plate reader.
(§1) After normalization to controls, the percent activity for each compound concentration was calculated by measuring the amount of remaining radioactivity. The plot of percent activity versus the log of compound concentration was fit with a 4-parameter dose response equation to calculate EC50 values.

In a further experiment the target is T2, full-length HAQ STING (Homo sapiens, UniProt Q86WV6, G230A/H232R/R293Q/R71H).
T2 construct: AviTag (after GG linker) (C); HRV3C cleavage site (after GS linker) (C); HIS8 (C); made in house; host or cells: Trichoplusia ni (Hi-Five) insect cells infected with baculovirus (virus generated and amplified in Sf21 cells); used as a washed membrane preparation
In words: 3H-cGAMP filtration binding assay (HAQ STING). The following applies: competition with tritiated cGAMP, HAQ STING membrane.
Excerpt: The ability of compounds to bind STING is quantified by the ability to compete with tritiated cGAMP ligand for human STING receptor membrane using a radioactive filter-binding assay. The binding assay employs STING receptor obtained from Hi-Five cell membranes overexpressing full-length HAQ STING prepared in-house and tritiated cGAMP ligand also purified in-house.
The ability of compounds to bind STING is quantified by their ability to compete with tritiated cGAMP ligand for human STING receptor membrane using a radioactive filter-binding assay. The binding assay employs STING receptor obtained from Trichoplusia ni cell membranes (T. ni; Expression Systems, cat #94-002F, www.expressionsystems.com) overexpressing full-length HAQ STING and tritiated cGAMP ligand.
The basic HAQ STING filtration assay protocol is as follows:
The compounds were serially titrated by the Hamilton STARPlus CORE in a 96-well plate (Greiner, #651201) using a 1:3 ten-point dose response format. After compound preparation, a 2.2 ug/ml working concentration of STING membrane (SEQ. ID. No. 1) was prepared by diluting concentrated membrane into assay buffer (1×PBS; Invitrogen # SH30028.02) and douncing 7× using a manual tissue homogenizer (Wheaton, #357546). 148 uL of prepared membrane was then manually added to each well of a 96-well deep-well polypropylene plate (Fisher Scientific, #12-566-121). Following membrane addition, 2 uL of either titrated test compound, DMSO control (Sigma #276855), or cold cGAMP control was added to the appropriate wells using a BIOMEK FX. Compound and membrane then preincubated for 60 min at RT to allow compound binding to equilibrate. Following equilibration, 8 nM of [^3H]c-GAMP ligand was prepared by diluting into assay buffer, and 50 uL of this working stock was then manually added to each well of the assay plate. Plates were then incubated at RT for 60 min, and the contents of each assay plate were then filtered through a 96-well GF/B filter plate (PerkinElmer, #6005250) using a TOMTEC MACH III Cell Harvester equipped with 20 mM HEPES buffer (Fisher Scientific, # BP299500). The filter plates were then dried at 55° C. for 30 min using a pressurized oven before 30 uL of ULTIMA GOLD F scintillate was added to each well. Tritium levels for each reaction well were then measured using a PerkinElmer TopCount plate reader.
as §1

For experiment [1], the system named is secretion of interferon-beta from THP1 cells. In words: IFN-β secretion in THP1 cell culture (5 h). The following applies: Homo sapiens, THP-1, 5 h, compound at 30 μM, 30 uM cGAMP = 100%, read-out: % Effect at 30 μM relative to 2′3′-cGAMP. The class given is cell-based. As for the experimental part:
The ability of compounds to stimulate the secretion of interferon-beta from THP1 cells was measured using a human IFN-β AlphaLISA kit (Perkin Elmer, Cat. No. AL265F). The basic protocol is as follows:
A Labcyte Echo 550 acoustic dispenser was used to transfer 120 nL of compound dissolved in DMSO into the wells of an empty, sterile 384-well microplate, (Corning, Cat. No. 3712). THP1 cells (American Type Culture Collection, Cat. No. TIB202) previously frozen in Recovery Medium (Life Technologies, Cat. No. 12648-010) were thawed and immediately diluted 10-fold into 37° C. assay medium (RPMI 1640+L-Glutamine & phenol red, Life Technologies, Cat. No. 11875-085; 0.5% heat inactivated fetal bovine serum, Sigma Aldrich, Cat. No. F4135; 1 mM Sodium Pyruvate, Life Technologies, Cat. No. 11360-070; 1× non-essential amino acids; Life Technologies, Cat. No. 11140-050). The cell viability and count was ascertained using a Beckman Coulter V-Cell XR cell counter. The cells suspension was centrifuged at 200×g for 5 min at RT. Cells were resuspended to a density of 0.8×10^6/mL in 37° C. assay medium. Subsequent liquid transfers were performed using either a Matrix electronic multichannel pipette or an Agilent Bravo Automated Liquid Handling Platform.
The assay was started by dispensing 40 μL of the previously prepared cell suspension into the wells of the plate containing compounds. After 5 h incubation at 37° C., 5% CO2 in a humidified atmosphere, the plate of cells and compounds was centrifuged at 200×g for 5 min at RT. From each well, 5 μL of supernatant was transferred into corresponding wells of a white 384-well plate (Perkin Elmer, Cat. No. 6005620). To these supernatant-containing wells was added 10 μL of 5× Anti-Analyte Acceptor beads (50 μg/mL of AlphaLISA HiBlock Buffer) and incubated for 30 min at RT while shaking on an orbital plate shaker. To each well was added 10 μL of 5× Biotinylated Antibody Anti-analyte (5 nM in AlphaLISA HiBlock Buffer) and incubated on an orbital plate shaker for 60 min at RT or overnight at 4° C. To each well was added 25 μL of 2× SA-Donor beads (80 μg/mL in AlphaLISA HiBlock Buffer) and incubated for 30-45 min at RT in the dark while shaking on an orbital plate shaker. The plate was then read on a Perkin Elmer Envision (λex=680 nm, […]). The percent effect of the AlphaLISA signal at each compound concentration was calculated based on 30 uM cGAMP positive controls and 0.3% DMSO negative controls. The plot of percent effect versus the log of compound concentration was fit with a 4-parameter concentration response equation to calculate EC50 values. The test compounds were tested at concentrations 30000, 10000, 3333, 1111, 370.4, 123.4, 41.2, 13.7, 4.6, and 1.5 nM with 0.3% residual DMSO. The control compound, cGAMP was tested at concentrations 100000, 33333, 11111, 3704, 1235, 412, 137, 46, and 15 nM with 0.3% residual DMSO.
Compounds of the disclosure were evaluated for IFN-β secretion in THP1 cell culture as described above. The following table tabulates the biological data for these compounds as percent activation relative to 2′3′-cGAMP at the 30 µM concentration.

T2 sequence (Q86WV6 with tags, fused parts or gaps R71H/G230A/H232R/R293Q): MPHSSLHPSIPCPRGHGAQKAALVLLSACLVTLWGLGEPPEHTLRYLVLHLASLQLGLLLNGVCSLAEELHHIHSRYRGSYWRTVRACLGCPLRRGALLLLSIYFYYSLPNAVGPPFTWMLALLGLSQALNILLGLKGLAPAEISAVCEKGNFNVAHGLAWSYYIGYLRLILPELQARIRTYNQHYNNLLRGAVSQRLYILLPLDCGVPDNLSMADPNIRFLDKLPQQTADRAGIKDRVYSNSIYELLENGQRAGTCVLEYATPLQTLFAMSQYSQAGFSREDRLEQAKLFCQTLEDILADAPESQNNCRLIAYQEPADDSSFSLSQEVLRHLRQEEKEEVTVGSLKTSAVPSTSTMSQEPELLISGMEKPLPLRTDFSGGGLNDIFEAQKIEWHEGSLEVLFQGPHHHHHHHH
T1 sequence (Q86WV6 with tags, fused parts or gaps H232R): as the sequence (Q86WV6 with tags, fused parts or gaps R71H/G230A/H232R/R293Q) above, with H71R, A230G, Q293R counted along it

One may read the EC50 as the concentration giving half of the maximal effect. A high value points to a less potent agent. As for `COc1cc2sc(C(=O)C[C@H](C)C(=O)O)cc2nc1OCCOc1c(OC)cc2sc(C(=O)C[C@H](C)C(=O)O)cc2c1F` (racemic) [Example 19, rac-(R)-4-(5-(2-((2-((R)-3-carboxybutanoyl)-4-fluoro-6-methoxybenzo[b]thiophen-5-yl)oxy)ethoxy)-6-methoxythieno[3,2-b]pyridin-2-yl)-2-methyl-4-oxobutanoic acid], the EC50 on full-length WT STING stood at 9 nM; at full-length HAQ STING, 2 nM. For the same compound, in experiment [1], the activation at 30 µM amounted to 30%.
The matching figures for `COc1cc2sc(C(=O)C[C@H](C)C(=O)O)cc2nc1OCCCOc1c(OC)cc2sc(C(=O)C[C@H](C)C(=O)O)cc2c1F` (racemic) [Example 22, rac-(R)-4-(5-(3-((2-((R)-3-carboxybutanoyl)-4-fluoro-6-methoxybenzo[b]thiophen-5-yl)oxy)propoxy)-6-methoxythieno[3,2-b]pyridin-2-yl)-2-methyl-4-oxobutanoic acid]: 1 nM, 1 nM and 48%.
The matching figures for `COc1cc2sc(C(=O)C[C@H](C)C(=O)O)cc2cc1OCCOc1cc2sc(C(=O)C[C@H](C)C(=O)O)cc2cc1OC` (racemic) [Example 57, rac-(R)-4-(5-(2-((2-((R)-3-carboxybutanoyl)-5-methoxybenzo[b]thiophen-6-yl)oxy)ethoxy)-6-methoxybenzo[b]thiophen-2-yl)-2-methyl-4-oxobutanoic acid]: 398 nM, 92 nM and 15%.
Taken in the same sequence, the figures for `COc1cc2sc(C(=O)C[C@H](C)C(=O)O)cc2cc1OCCCOc1cc2cc(C(=O)[C@H]3C[C@@H]3C(=O)O)sc2cc1OC` (racemic) [Example 68, rac-(1R,2R)-2-(5-(3-((2-((R)-3-carboxybutanoyl)-6-methoxybenzo[b]thiophen-5-yl)oxy)propoxy)-6-methoxybenzo[b]thiophene-2-carbonyl)cyclopropane-1-carboxylic acid] were 443 nM, 50 nM and 24%.
Turning to `COc1cc2sc(C(=O)CCC(=O)O)cc2cc1CCCOc1c(OC)cc2sc(C(=O)[C@@H]3C[C@H]3C(=O)O)cc2c1F` (relative stereo) [Example 85, trans-2-(5-(3-(2-(3-carboxypropanoyl)-6-methoxybenzo[b]thiophen-5-yl)propoxy)-4-fluoro-6-methoxybenzo[b]thiophene-2-carbonyl)cyclopropane carboxylic acid], the EC50 worked out at 9010 nM on full-length WT STING and 360 nM on full-length HAQ STING. Moreover, in experiment [1], the activation at 30 µM turned out to be 145%.
As for `COc1cc2sc(C(=O)C[C@H](C)C(=O)O)cc2c(F)c1OCCCOc1cc2sc(C(=O)[C@@H]3CC[C@H]3C(=O)O)cc2c(F)c1OC` (single isomer, unassigned) [Example 97], the EC50 on full-length WT STING amounted to 69 nM; on full-length HAQ STING, 20 nM.
With `COc1cc2sc(C(=O)C[C@H](C)C(=O)O)cc2c(F)c1OCCCOc1c(OC)cc2sc(C(=O)[C@@H]3CC[C@H]3C(=O)O)cc2c1F` [Example 98, trans-2-(5-(3-((2-((S)-3-carboxybutanoyl)-4-fluoro-6-methoxybenzo[b]thiophen-5-yl)oxy)propoxy)-4-fluoro-6-methoxybenzo[b]thiophene-2-carbonyl)cyclobutane carboxylic acid], at full-length HAQ STING, the EC50 turned out to be 1 nM. In addition, the activation at 30 µM in experiment [1] stood at 92%.
Turning to `COc1cc2sc(C(=O)C[C@H](C)C(=O)O)cc2c(F)c1OCCCOc1c(OC)cc2sc(C(=O)[C@@H]3CC[C@H]3C(=O)O)cc2c1F` [Example 99, trans-2-(5-(3-((2-((S)-3-carboxybutanoyl)-4-fluoro-6-methoxybenzo[b]thiophen-5-yl)oxy)propoxy)-4-fluoro-6-methoxybenzo[b]thiophene-2-carbonyl)cyclobutane carboxylic acid], the response at full-length HAQ STING was half-maximal at 1 nM (EC50).

Source of the values: patent US10793557B2, “Sting agonist compounds” (Merck Sharp & Dohme Corp., priority 2018, dated 2020).
